Assay results published in US6949542B2, “Dihydro-benzo[b][1,4]diazepin-2-one derivatives” (Hoffman-La Roche Inc., priority 2002, dated 2005).

How the values were obtained:
[1] = target: T1, rat mGlu2 receptor (Rattus norvegicus, UniProt P31421); assay: [3H]-LY354740 binding on mGlu2 transfected CHO cell membranes; settings: inhibition of 10 nM [3H]-LY354740 binding, mGlu2 transfected CHO cell membranes, room temperature, 1 hour; read-out: Ki mGlu2
T1 construct: expressed in transfected cells; vector pcD1mGR2
T1 sequence (P31421 19-872): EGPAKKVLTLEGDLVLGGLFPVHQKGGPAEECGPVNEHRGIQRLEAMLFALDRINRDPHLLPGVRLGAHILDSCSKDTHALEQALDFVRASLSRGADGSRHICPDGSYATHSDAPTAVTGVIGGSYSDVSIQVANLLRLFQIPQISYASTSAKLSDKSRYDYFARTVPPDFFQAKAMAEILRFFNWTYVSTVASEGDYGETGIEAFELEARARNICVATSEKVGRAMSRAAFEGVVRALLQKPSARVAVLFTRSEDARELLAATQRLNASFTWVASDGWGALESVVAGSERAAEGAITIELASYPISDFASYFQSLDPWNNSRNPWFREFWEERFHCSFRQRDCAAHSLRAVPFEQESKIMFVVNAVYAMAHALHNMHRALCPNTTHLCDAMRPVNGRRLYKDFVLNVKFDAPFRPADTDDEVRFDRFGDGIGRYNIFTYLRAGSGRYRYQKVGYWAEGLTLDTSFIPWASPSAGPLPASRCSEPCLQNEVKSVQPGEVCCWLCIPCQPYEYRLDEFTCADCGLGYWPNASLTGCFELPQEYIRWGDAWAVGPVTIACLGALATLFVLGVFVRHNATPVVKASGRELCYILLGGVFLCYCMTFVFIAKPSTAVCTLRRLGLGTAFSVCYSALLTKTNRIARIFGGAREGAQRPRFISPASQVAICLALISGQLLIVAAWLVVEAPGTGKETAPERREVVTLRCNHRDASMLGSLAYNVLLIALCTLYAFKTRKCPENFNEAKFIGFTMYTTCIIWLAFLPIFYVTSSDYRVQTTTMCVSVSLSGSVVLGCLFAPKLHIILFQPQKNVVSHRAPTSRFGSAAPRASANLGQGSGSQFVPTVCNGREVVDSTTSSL

| SMILES | Ki [1] | melting point |
| --- | --- | --- |
| COCCOc1cc2c(cc1C(F)(F)F)NC(=O)CC(c1cccc(-c3ccnc(C#N)c3)c1)=N2 [Example 209, 4-{3-[8-(2-Methoxy-ethoxy)-4-oxo-7-trifluoromethyl-4,5-dihydro-3H-benzo[b][1,4]diazepin-2-yl]-phenyl}-pyridine-2-carbonitrile] | 12.8 nM | 212 to 213 °C |
| Cc1cc2c(cc1C(F)(F)F)NC(=O)CC(c1cccc(-c3cnccn3)c1)=N2 [Example 87, 7-Methyl-4-(3-pyrazin-2-yl-phenyl)-8-trifluoromethyl-1,3-dihydro-benzo[b][1,4]diazepin-2-one] | 10 nM | 237 °C |
| Cc1ccc(-c2cccc(C3=Nc4ccc(-c5ccccc5F)cc4NC(=O)C3)c2)cn1 [Example 12, 8-(2-Fluoro-phenyl)-4-[3-(6-methyl-pyridin-3-yl)-phenyl]-1,3-dihydro-benzo[b][1,4]diazepin-2-one] | 3.9 nM | 206 to 209 °C |
| O=C1CC(c2cccc(-c3cnccn3)c2)=Nc2ccc(-n3cccc3)cc2N1 [Example 109, 4-(3-Pyrazin-2-yl-phenyl)-8-pyrrol-1-yl-1,3-dihydro-benzo[b][1,4]diazepin-2-one] | 5.5 nM | 214 °C |
| O=C1CC(c2cccc(-c3ccc[n+]([O-])c3)c2)=Nc2cc(OCC(F)(F)F)c(C(F)(F)F)cc2N1 [Example 357, 4-[3-(1-Oxy-pyridin-3-yl)-phenyl]-7-(2,2,2-trifluoro-ethoxy)-8-trifluoromethyl-1,3-dihydro-benzo[b][1,4]diazepin-2-one] | 6.1 nM | 226 °C |

The remaining compounds from weak to strong by Ki [1], led by results:

| Ki [1] | melting point | SMILES |
| --- | --- | --- |
| 45 nM | 211 to 212 °C | Cc1nccc(-c2cccc(C3=Nc4cc(N(C)C)c(C(F)(F)F)cc4NC(=O)C3)c2)n1 [Example 303, 7-Dimethylamino-4-[3-(2-methyl-pyrimidin-4-yl)-phenyl]-8-trifluoromethyl-1,3-dihydro-benzo[b][1,4]diazepin-2-one] |
| 23.7 nM | 239 to 240 °C | N#Cc1cc(-c2cccc(C3=Nc4ccc(C(F)(F)F)cc4NC(=O)C3)c2)ccn1 [Example 198, 4-[3-(4-Oxo-7-trifluoromethyl-4,5-dihydro-3H-benzo[b][1,4]diazepin-2-yl)-phenyl]-pyridine-2-carbonitrile] |
| 8 nM | 200 to 203 °C | COCCNc1nc(C)cc(-c2cccc(C3=Nc4cc(N(C)C)c(C(F)(F)F)cc4NC(=O)C3)c2)n1 [Example 326, 7-Dimethylamino-4-{3-[2-(2-methoxy-ethylamino)-6-methyl-pyrimidin-4-yl]-phenyl}-8-trifluoromethyl-1,3-dihydro-benzo[b][1,4]diazepin-2-one] |
| 5.5 nM | 192 °C | CCCN(C)c1cc2c(cc1C(F)(F)F)NC(=O)CC(c1cccc(-c3ccnc(C)c3)c1)=N2 [Example 80, 7-(Methyl-propyl-amino)-4-[3-(2-methyl-pyridin-4-yl)-phenyl]-8-trifluoromethyl-1,3-dihydro benzo[b][1,4]diazepin-2-one] |
| 3.4 nM | 240 °C | O=C1CC(c2cccc(-c3ccncc3)c2)=Nc2cc(Cl)c(Cl)cc2N1 [Example 2, 7,8-Dichloro-4-(3-pyridin-4-yl-phenyl)-1,3-dihydro-benzo[b][1,4]diazepin-2-one] |
| 2.8 nM | 221 °C | Cc1cc2c(cc1C(F)(F)F)N=C(c1cccc(-c3cccnc3)c1)CC(=O)N2 [Example 25, 8-Methyl-4-(3-pyridin-3-yl-phenyl)-7-trifluoromethyl-1,3-dihydro-benzo[b][1,4]diazepin-2-one] |
| 2 nM | 232 °C | O=C1CC(c2cccc(-c3cccnc3)c2)=Nc2ccc(Cl)cc2N1 [Example 28, 8-Chloro-4-(3-pyridin-3-yl-phenyl)-1,3-dihydro-benzo[b][1,4]diazepin-2-one] |
